± gives the expanded uncertainty stated by the source.
Assay: xn = mol fraction of the nth substance listed
Settings: Vibrating tube method, x2 = 0.9503

O=S=O [sulfur dioxide] + O=C=O
Settings | mass density [kg/m3]
322.49 K, 26001 kPa, Fluid (supercritical or subcritical phases) | 875.4 ± 0.8
322.49 K, 26517 kPa, Fluid (supercritical or subcritical phases) | 878.8 ± 0.8
322.49 K, 27508 kPa, Fluid (supercritical or subcritical phases) | 886.3 ± 0.8
322.49 K, 28018 kPa, Fluid (supercritical or subcritical phases) | 889.5 ± 0.8
322.49 K, 29025 kPa, Fluid (supercritical or subcritical phases) | 896.4 ± 0.7
322.49 K, 29507 kPa, Fluid (supercritical or subcritical phases) | 899.6 ± 0.7
322.5 K, 17499 kPa, Fluid (supercritical or subcritical phases) | 793.5 ± 1.3
322.5 K, 18503 kPa, Fluid (supercritical or subcritical phases) | 806.6 ± 1.3
322.5 K, 19491 kPa, Fluid (supercritical or subcritical phases) | 818.5 ± 1.1
322.5 K, 24497 kPa, Fluid (supercritical or subcritical phases) | 864.4 ± 0.9
322.5 K, 25003 kPa, Fluid (supercritical or subcritical phases) | 867.7 ± 0.8
322.51 K, 11504 kPa, Fluid (supercritical or subcritical phases) | 649.9 ± 3.5
322.51 K, 12003 kPa, Fluid (supercritical or subcritical phases) | 672.3 ± 2.9
322.51 K, 16502 kPa, Fluid (supercritical or subcritical phases) | 779.1 ± 1.5
322.51 K, 17005 kPa, Fluid (supercritical or subcritical phases) | 786.2 ± 1.3
322.52 K, 14000 kPa, Fluid (supercritical or subcritical phases) | 731.9 ± 1.9
322.52 K, 14504 kPa, Fluid (supercritical or subcritical phases) | 742.9 ± 1.7
322.52 K, 15012 kPa, Fluid (supercritical or subcritical phases) | 753.2 ± 1.7
322.52 K, 15501 kPa, Fluid (supercritical or subcritical phases) | 761.8 ± 1.5
322.52 K, 16003 kPa, Fluid (supercritical or subcritical phases) | 770.9 ± 1.5
322.53 K, 12505 kPa, Fluid (supercritical or subcritical phases) | 691.1 ± 2.5
322.53 K, 13501 kPa, Fluid (supercritical or subcritical phases) | 720.4 ± 2.1
322.54 K, 13000 kPa, Fluid (supercritical or subcritical phases) | 706.7 ± 2.3
352.93 K, 202 kPa, Gas | 3 ± 0.2
352.93 K, 6001 kPa, Gas | 114.8 ± 0.4
352.94 K, 1742 kPa, Gas | 28.6 ± 0.2
352.94 K, 2504 kPa, Gas | 41.8 ± 0.2
352.94 K, 4003 kPa, Gas | 70.6 ± 0.2
352.94 K, 4493 kPa, Gas | 80.5 ± 0.2
352.94 K, 6516 kPa, Gas | 127.7 ± 0.4
352.94 K, 7017 kPa, Gas | 140.9 ± 0.4
352.94 K, 7498 kPa, Fluid (supercritical or subcritical phases) | 154.1 ± 0.5
352.94 K, 8038 kPa, Fluid (supercritical or subcritical phases) | 170.3 ± 0.5
352.94 K, 9008 kPa, Fluid (supercritical or subcritical phases) | 201.9 ± 0.7
352.95 K, 306 kPa, Gas | 4.6 ± 0.2
352.95 K, 402 kPa, Gas | 6 ± 0.2
352.95 K, 511 kPa, Gas | 7.6 ± 0.2
352.95 K, 740 kPa, Gas | 11.4 ± 0.2
352.95 K, 1507 kPa, Gas | 24.3 ± 0.2
352.95 K, 2002 kPa, Gas | 33 ± 0.2
352.95 K, 2248 kPa, Gas | 37 ± 0.2
352.95 K, 2800 kPa, Gas | 47.2 ± 0.2
352.95 K, 3009 kPa, Gas | 51 ± 0.2
352.95 K, 4997 kPa, Gas | 91.5 ± 0.2
352.95 K, 5490 kPa, Gas | 102.6 ± 0.4
352.95 K, 9230 kPa, Fluid (supercritical or subcritical phases) | 209.5 ± 0.7
352.95 K, 12000 kPa, Fluid (supercritical or subcritical phases) | 321.9 ± 2.7
352.95 K, 12505 kPa, Fluid (supercritical or subcritical phases) | 346.8 ± 2.9
352.95 K, 14502 kPa, Fluid (supercritical or subcritical phases) | 447.3 ± 2.9
352.95 K, 15497 kPa, Fluid (supercritical or subcritical phases) | 493.2 ± 2.7
352.95 K, 16515 kPa, Fluid (supercritical or subcritical phases) | 535.1 ± 2.5
352.95 K, 17520 kPa, Fluid (supercritical or subcritical phases) | 569.4 ± 2.1
352.95 K, 19511 kPa, Fluid (supercritical or subcritical phases) | 624.5 ± 1.7
352.95 K, 21993 kPa, Fluid (supercritical or subcritical phases) | 677.2 ± 1.5
352.95 K, 22493 kPa, Fluid (supercritical or subcritical phases) | 686.4 ± 1.3
352.95 K, 23011 kPa, Fluid (supercritical or subcritical phases) | 694.8 ± 1.3
352.95 K, 24538 kPa, Fluid (supercritical or subcritical phases) | 717.4 ± 1.3
352.95 K, 25002 kPa, Fluid (supercritical or subcritical phases) | 723.7 ± 1.1
352.95 K, 31494 kPa, Fluid (supercritical or subcritical phases) | 793.2 ± 0.9
352.96 K, 982 kPa, Gas | 15.1 ± 0.2
352.96 K, 1248 kPa, Gas | 19.9 ± 0.2
352.96 K, 3495 kPa, Gas | 60.3 ± 0.2
352.96 K, 8507 kPa, Fluid (supercritical or subcritical phases) | 185.5 ± 0.5
352.96 K, 10075 kPa, Fluid (supercritical or subcritical phases) | 238.1 ± 2.1
352.96 K, 11001 kPa, Fluid (supercritical or subcritical phases) | 276.4 ± 2.3
352.96 K, 12998 kPa, Fluid (supercritical or subcritical phases) | 371.8 ± 2.9
352.96 K, 13501 kPa, Fluid (supercritical or subcritical phases) | 397.6 ± 2.9
352.96 K, 14004 kPa, Fluid (supercritical or subcritical phases) | 422.3 ± 2.9
352.96 K, 15003 kPa, Fluid (supercritical or subcritical phases) | 470.1 ± 2.9
352.96 K, 16004 kPa, Fluid (supercritical or subcritical phases) | 514.7 ± 2.5
352.96 K, 17006 kPa, Fluid (supercritical or subcritical phases) | 552.6 ± 2.3
352.96 K, 19011 kPa, Fluid (supercritical or subcritical phases) | 611.7 ± 1.9
352.96 K, 20014 kPa, Fluid (supercritical or subcritical phases) | 636.9 ± 1.7
352.96 K, 20490 kPa, Fluid (supercritical or subcritical phases) | 647.4 ± 1.7
352.96 K, 20999 kPa, Fluid (supercritical or subcritical phases) | 657.9 ± 1.5
352.96 K, 21521 kPa, Fluid (supercritical or subcritical phases) | 668.5 ± 1.5
352.96 K, 23524 kPa, Fluid (supercritical or subcritical phases) | 703.1 ± 1.3
352.96 K, 24023 kPa, Fluid (supercritical or subcritical phases) | 710.4 ± 1.3
352.96 K, 25555 kPa, Fluid (supercritical or subcritical phases) | 731.2 ± 1.1
352.96 K, 26036 kPa, Fluid (supercritical or subcritical phases) | 736.4 ± 1.1
352.96 K, 27501 kPa, Fluid (supercritical or subcritical phases) | 752.6 ± 1.1
352.96 K, 28006 kPa, Fluid (supercritical or subcritical phases) | 758.3 ± 1.1
352.96 K, 28507 kPa, Fluid (supercritical or subcritical phases) | 764.2 ± 1.1
352.96 K, 29492 kPa, Fluid (supercritical or subcritical phases) | 773.9 ± 0.9
352.96 K, 29991 kPa, Fluid (supercritical or subcritical phases) | 779 ± 0.9
352.96 K, 31058 kPa, Fluid (supercritical or subcritical phases) | 789.4 ± 0.9
352.96 K, 31993 kPa, Fluid (supercritical or subcritical phases) | 797.6 ± 0.9
352.96 K, 33014 kPa, Fluid (supercritical or subcritical phases) | 805.8 ± 0.9
352.96 K, 33519 kPa, Fluid (supercritical or subcritical phases) | 809.8 ± 0.9
352.96 K, 36996 kPa, Fluid (supercritical or subcritical phases) | 835.2 ± 0.7
352.97 K, 10506 kPa, Fluid (supercritical or subcritical phases) | 255.3 ± 2.1
352.97 K, 11505 kPa, Fluid (supercritical or subcritical phases) | 298.8 ± 2.5
352.97 K, 18007 kPa, Fluid (supercritical or subcritical phases) | 583.3 ± 2.1
352.97 K, 18500 kPa, Fluid (supercritical or subcritical phases) | 597.8 ± 1.9
352.97 K, 26597 kPa, Fluid (supercritical or subcritical phases) | 742.8 ± 1.1
352.97 K, 29001 kPa, Fluid (supercritical or subcritical phases) | 768.7 ± 0.9
352.97 K, 30512 kPa, Fluid (supercritical or subcritical phases) | 784.7 ± 0.9
352.97 K, 32552 kPa, Fluid (supercritical or subcritical phases) | 802.4 ± 0.9
352.97 K, 34055 kPa, Fluid (supercritical or subcritical phases) | 814.5 ± 0.9
352.97 K, 35014 kPa, Fluid (supercritical or subcritical phases) | 821.4 ± 0.9
352.97 K, 35510 kPa, Fluid (supercritical or subcritical phases) | 824.7 ± 0.7
352.97 K, 36496 kPa, Fluid (supercritical or subcritical phases) | 831.8 ± 0.7
352.97 K, 37499 kPa, Fluid (supercritical or subcritical phases) | 838.7 ± 0.7
352.97 K, 38520 kPa, Fluid (supercritical or subcritical phases) | 845.7 ± 0.7
352.97 K, 39009 kPa, Fluid (supercritical or subcritical phases) | 848.1 ± 0.7
352.98 K, 27043 kPa, Fluid (supercritical or subcritical phases) | 747.4 ± 1.1
352.98 K, 34563 kPa, Fluid (supercritical or subcritical phases) | 818.1 ± 0.9
352.98 K, 36013 kPa, Fluid (supercritical or subcritical phases) | 828.1 ± 0.7
352.98 K, 38023 kPa, Fluid (supercritical or subcritical phases) | 842.1 ± 0.7
352.98 K, 39300 kPa, Fluid (supercritical or subcritical phases) | 850.2 ± 0.7
352.98 K, 39330 kPa, Fluid (supercritical or subcritical phases) | 850.5 ± 0.7
